Measurements: patent US9308157B2, “Whitening cosmetic” (AJINOMOTO CO., INC., priority 2011, dated 2016)
Several values for one entry are separate records, joined by “and”; a condition that tells them apart may be missing. Equal values may be shown once. One block for each molecule: values may come before it.

Experiments:
Type in all cases: cell-based
B16 melanoma [1] = test: Melanin production rate measurement (Experimental Example 1, 6 well plate, medium + cell melanin); conditions: for melanin production suppressive effect / whitening effect when combined as component (B): combined with (A) N-Ac-CP2Et; for melanin production suppressive effect / whitening effect when combined as component (B) / melanin production suppressing effect / whitening effect when combined as component (B): summary of Table 1, highest grade stated; for melanin production suppressing effect / whitening effect when combined as component (B): combined with (A) N-Ac-CP; for activity at 20000 µM: 20 mM; for activity at 22500 µM: 22.5 mM
Description: B16 melanoma was cultured in DMEM (Dulbecco's Modified Eagle Medium) (high glucose, containing 10% serum). After confluence, the cells were seeded on a 6 well plate. The next day, each well medium was exchanged with DMEM (300 μM tyrosine added) added with each evaluation sample at a given evaluation concentration (Table 1), and the cells were cultured for 3 days. […] The medium was recovered, and centrifuged at 10000 rpm for 10 min. The absorbance of the supernatant at 450 nm was measured by spectrophotometer. The medium was recovered, and the cells were rinsed once with PBS (phosphate-buffered saline). A blending solution of 4% aqueous sodium hydroxide solution and dimethyl sulfoxide (9:1) was added to the well, and the mixture was stood at room temperature for 10 min. The cells were dissolved and recovered, and centrifuged at 3500 rpm for 10 min. The absorbance (450 nm) of the supernatant was measured by spectrophotometer. The total of the melanin amount in the medium and in the cell was calculated from the analytical curve drawn using synthetic melanin. By setting the calculated value 3 days after addition of each sample at a given concentration as a relative percentage to the calculated value of the control (no sample addition) defined as 100%, the melanin production rate of each sample to the melanin amount in the control as 100% was calculated. When a sample was dissolved dimethyl sulfoxide and then added, a sample containing 0.1% dimethyl sulfoxide was used as a control (no sample addition). The melanin production rate was standardized from the amount of cell protein obtained in Experimental Example 2.
(§1) The spectrophotometer used in this melanin production suppression test was DU800, manufactured by BECKMAN COULTER.
The melanin production rate of each sample was measured for a single use and combined use, and the effect of the combined use was evaluated by the following criteria using the theoretical value.
The theoretical value was melanin production rate (%) by single use of component (A)×melanin production rate (%) by single use of component (B)/100.

B16 melanoma [2] = test: Cell viability rate measurement (Experimental Example 2, cell protein amount); conditions: for cell viability rate (single): single use, 3 days; for safety when combined as component (B): summary of Table 1, highest grade stated
Description: B16 melanoma was cultured in DMEM (Dulbecco's Modified Eagle Medium) (high glucose, containing 10% serum). After confluence, the cells were seeded on a 6 well plate. The next day, each well medium was exchanged with DMEM (300 μM tyrosine added) added with each evaluation sample at a given evaluation concentration (Table 1), and the cells were cultured for 3 days. The medium was recovered, and the cells were rinsed once with PBS (phosphate-buffered saline). A blending solution of 4% aqueous sodium hydroxide solution and dimethyl sulfoxide (9:1) was added to the well, and the mixture was stood at room temperature for 10 min. The cells were dissolved and recovered, and centrifuged at 3500 rpm for 10 min, and the supernatant was diluted 3-fold with milli-Q water. Solution A (DC Protein Assay; BIO RAD, 100 μl) was added to the diluted solution (20 μl) and the mixture was admixed in a vortex. Solution B (DC Protein Assay; BIO RAD, 800 μl) was added and mixed therewith, and the mixture was stood at room temperature for 15 min. After standing, the absorbance (750 nm) was measured by a spectrophotometer. In addition, the analytical curve of albumin was determined, the protein amount of the above-mentioned solution was calculated, and the relative rate was taken as a viability rate.
as §1
The cell viability rate of each sample was measured for a single use and combined use, and the effect of the combined use was evaluated by the following criteria using the degree of toxic mitigation.
The degree of toxic mitigation was cell viability rate (%) by combined use of component (A) and component (B)−cell viability rate (%) by single use of component (B).

B16 melanoma [3] = test: Melanin production rate measurement (Experimental Example 3, 96 well plate, 5-25 mM); conditions: for IC50: Mus musculus, B16, 72 h, 3 days, samples 5-25 mM, read-out: concentration suppressing melanin production by 50%
Description: The cysteine derivatives of Synthetic Example 1 and Synthetic Example 3 were measured for a melanin production rate for comparison of a whitening effect. B16 melanoma was cultured in DMEM (Dulbecco's Modified Eagle Medium) (containing high glucose, serum 10%). After confluence, it was seeded in a 96 well plate. The next day, each well medium was exchanged with DMEM added with each evaluation sample adjusted to 5-25 mM, and the cells were cultured for 3 days. The absorbance at 450 nm was measured by a microplatereader. By setting the measurement value 3 days after addition of each sample at a given concentration as a relative percentage to the measurement value of the control (no sample addition) defined as 100%, the melanin production rate of each sample to the melanin amount in the control as 100% was calculated.
The calculated concentrations of the cysteine derivatives of Synthetic Example 1 and Synthetic Example 3 necessary for suppressing the melanin production rate by 50% are shown in Table 2.
The microplatereader used in this melanin production suppressing test was MULTISKAN FC manufactured by Thermo Fisher Scientific Inc.

[4] = Mus musculus, B16, 72 h, single use, 3 days, control = 100%

Compound: COc1ccc(C(=O)O)c(O)c1 [4-MS, 4-methoxy salicylic acid]
activity at 5000 µM (B16 melanoma [1]; Mus musculus, B16, 72 h, 5 mM (0.0084%), single use, 3 days, control = 100%): 100%
melanin production suppressive effect / whitening effect when combined as component (B) (B16 melanoma [1]): extremely remarkably improved
cell viability rate (single) (B16 melanoma [2]; 5 mM (0.0084%)): 87.0%

Compound: N[C@@H](CCC(=O)N[C@@H](CS)C(=O)NCC(=O)O)C(=O)O [GSH, glutathione (reduced type)]
activity at 500 µM (B16 melanoma [1]; Mus musculus, B16, 72 h, 0.5 mM, single use, 3 days, control = 100%): 100%
activity at 2000 µM (B16 melanoma [1]; Mus musculus, B16, 72 h, 2 mM, single use, 3 days, control = 100%): 100%
melanin production suppressive effect / whitening effect when combined as component (B) (B16 melanoma [1]): improved
melanin production suppressing effect / whitening effect when combined as component (B) (B16 melanoma [1]): extremely remarkably improved
cell viability rate (single) (B16 melanoma [2]; 0.5 mM): 94.4%
cell viability rate (single) (B16 melanoma [2]; 2 mM): 67.8%
safety when combined as component (B) (B16 melanoma [2]; combined with (A) N-Ac-CP2Et): remarkably improved
safety when combined as component (B) (B16 melanoma [2]; combined with (A) N-Ac-CP): remarkably improved

IC50 (B16 melanoma [3]): 18.9 mM
Compound: CCOC(=O)C1(C)SCC(C(=O)O)N1C(C)=O (stereo not shown) [N—Ac-CP2Et, N-acetyl-2-methylthiazolidine-2,4-dicarboxylic acid 2-ethyl ester]
activity at 15000 µM (B16 melanoma [1]; Mus musculus, B16, 72 h, 15 mM, single use, 3 days, control = 100%): 92.2%
activity at 20000 µM (B16 melanoma [1]; [4]): 62%
activity at 22500 µM (B16 melanoma [1]; [4]): 48.6%
cell viability rate (single) (B16 melanoma [2]; 15 mM): 105.7%
cell viability rate (single) (B16 melanoma [2]; 20 mM): 101.5%
cell viability rate (single) (B16 melanoma [2]; 22.5 mM): 98.6%

Compound: CC(=O)N1C(C(=O)O)CSC1(C)C(=O)O (stereo not shown) [N—Ac-CP, N-acetyl-2-methylthiazolidine-2,4-dicarboxylic acid]
activity at 20000 µM (B16 melanoma [1]; [4]): 59.4%
activity at 22500 µM (B16 melanoma [1]; [4]): 45.1%
activity at 25000 µM (B16 melanoma [1]; Mus musculus, B16, 72 h, 25 mM, single use, 3 days, control = 100%): 35.3%
cell viability rate (single) (B16 melanoma [2]; 20 mM): 95.6%
cell viability rate (single) (B16 melanoma [2]; 22.5 mM): 100.6%
cell viability rate (single) (B16 melanoma [2]; 25 mM): 97.8%

IC50 (B16 melanoma [3]): 16.6 mM
Compound: CCOC(=O)[C@]1(C)SC[C@@H](C(=O)O)N1C(C)=O [Synthetic Example 3, (2S,4R)-N-acetyl-2-methylthiazolidine-2,4-dicarboxylic acid 2-ethyl ester]
melanin production suppressing effect compared with Synthetic Example 1 (B16 melanoma [3]; from Table 2): stronger

Compound: OC[C@H]1O[C@@H](Oc2ccc(O)cc2)[C@H](O)[C@@H](O)[C@@H]1O [arbutin]
melanin production suppressive effect / whitening effect when combined as component (B) (B16 melanoma [1]): extremely remarkably improved
melanin production suppressing effect / whitening effect when combined as component (B) (B16 melanoma [1]): improved
cell viability rate (single) (B16 melanoma [2]; 0.5 mM): 85.5% and 96.5%
safety when combined as component (B) (B16 melanoma [2]; combined with (A) N-Ac-CP2Et): improved
safety when combined as component (B) (B16 melanoma [2]; combined with (A) N-Ac-CP): improved

Compound: CCCCCCCCCCCCCCCCOC1=C(O)C(=O)O[C@@H]1[C@@H](O)CO [cetyl ascorbyl ether, 3-o-cetyl ascorbyl ether]
Melanin production rate (single) (B16 melanoma [1]; 30 μM, single use, 3 days, control = 100%): 72.8% and 67.6%
melanin production suppressive effect / whitening effect when combined as component (B) (B16 melanoma [1]): remarkably improved
melanin production suppressing effect / whitening effect when combined as component (B) (B16 melanoma [1]): remarkably improved
cell viability rate (single) (B16 melanoma [2]; 30 μM): 75.8%

Compound: O=c1oc2c(O)c(O)cc3c(=O)oc4c(O)c(O)cc1c4c23 [ellagic acid]
activity at 6 µM (B16 melanoma [1]; Mus musculus, B16, 72 h, 6 μM, single use, 3 days, control = 100%): 100%
melanin production suppressive effect / whitening effect when combined as component (B) (B16 melanoma [1]): improved
cell viability rate (single) (B16 melanoma [2]; 6 μM): 96.1%
safety when combined as component (B) (B16 melanoma [2]; combined with (A) N-Ac-CP2Et): extremely remarkably improved

Compound: O=c1cc(CO)occ1O [kojic acid]
activity at 250 µM (B16 melanoma [1]; Mus musculus, B16, 72 h, 0.25 mM, single use, 3 days, control = 100%): 66%
melanin production suppressive effect / whitening effect when combined as component (B) (B16 melanoma [1]): extremely remarkably improved
cell viability rate (single) (B16 melanoma [2]; 0.25 mM): 99.1%
safety when combined as component (B) (B16 melanoma [2]; combined with (A) N-Ac-CP2Et): extremely remarkably improved

Compound: CCCCC/C=C\C/C=C\CCCCCCCC(=O)O [linoleic acid]
activity at 75 µM (B16 melanoma [1]; Mus musculus, B16, 72 h, 75 μM, single use, 3 days, control = 100%): 71.3%
melanin production suppressive effect / whitening effect when combined as component (B) (B16 melanoma [1]): improved
cell viability rate (single) (B16 melanoma [2]; 75 μM): 105.2%
safety when combined as component (B) (B16 melanoma [2]; combined with (A) N-Ac-CP2Et): remarkably improved

Compound: CCCCCCc1ccc(O)cc1O [rcinol, 4-hexylresorcinol]
activity at 12.5 µM (B16 melanoma [1]; Mus musculus, B16, 72 h, 12.5 μM, single use, 3 days, control = 100%): 66.2%
melanin production suppressive effect / whitening effect when combined as component (B) (B16 melanoma [1]): improved
cell viability rate (single) (B16 melanoma [2]; 12.5 μM): 94.3%
safety when combined as component (B) (B16 melanoma [2]; combined with (A) N-Ac-CP2Et): remarkably improved

Compound: NC[C@H]1CC[C@H](C(=O)O)CC1 [tranexamic acid, trans-4-(aminomethyl)-cyclohexanecarboxylic acid]
activity at 10000 µM (B16 melanoma [1]; Mus musculus, B16, 72 h, 10 mM, single use, 3 days, control = 100%): 100%
melanin production suppressive effect / whitening effect when combined as component (B) (B16 melanoma [1]): extremely remarkably improved
cell viability rate (single) (B16 melanoma [2]; 10 mM): 93.1%
safety when combined as component (B) (B16 melanoma [2]; combined with (A) N-Ac-CP2Et): remarkably improved
